Measured values published in the supplement of paper PMC10307832.

Experiments:
Assay in all cases: relative viability (nuclei count vs DMSO), 5 days (fraction); higher = more cells survive
Crizotinib + Navitoclax = compound: C[C@@H](Oc1cc(-c2cnn(C3CCNCC3)c2)cnc1N)c1c(Cl)ccc(F)c1Cl [Crizotinib] + CC1(C)CCC(c2ccc(Cl)cc2)=C(CN2CCN(c3ccc(C(=O)NS(=O)(=O)c4ccc(N[C@H](CCN5CCOCC5)CSc5ccccc5)c(S(=O)(=O)C(F)(F)F)c4)cc3)CC2)C1 [Navitoclax] (partner 0.5 µM)
Procedure, shortened: (§1)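 Relative viability equals treated-well nuclei counts divided by vehicle-well nuclei counts. Counts came from 4× images of lung cancer cell lines grown in 1536-well plates for 5 days after pin-tool dosing on the day after seeding. Dosing used one drug alone or a fixed anchor-drug dose plus five library-drug doses (not always all listed) in √10 steps, and values are medians of duplicate plates.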

Crizotinib + Foretinib = compound: C[C@@H](Oc1cc(-c2cnn(C3CCNCC3)c2)cnc1N)c1c(Cl)ccc(F)c1Cl [Crizotinib] + COc1cc2c(Oc3ccc(NC(=O)C4(C(=O)Nc5ccc(F)cc5)CC4)cc3F)ccnc2cc1OCCCN1CCOCC1 [Foretinib] (partner 0.25 µM)
Procedure, shortened: as §1

Carfilzomib + Luminespib = compound: CC(C)C[C@H](NC(=O)[C@H](CCc1ccccc1)NC(=O)CN1CCOCC1)C(=O)N[C@@H](Cc1ccccc1)C(=O)N[C@@H](CC(C)C)C(=O)[C@@]1(C)CO1 [Carfilzomib] + CCNC(=O)c1noc(-c2cc(C(C)C)c(O)cc2O)c1-c1ccc(CN2CCOCC2)cc1 [Luminespib] (partner 0.01 µM)
Procedure, shortened: as §1

Carfilzomib + AZD7762 = compound: CC(C)C[C@H](NC(=O)[C@H](CCc1ccccc1)NC(=O)CN1CCOCC1)C(=O)N[C@@H](Cc1ccccc1)C(=O)N[C@@H](CC(C)C)C(=O)[C@@]1(C)CO1 [Carfilzomib] + NC(=O)Nc1cc(-c2cccc(F)c2)sc1C(=O)N[C@H]1CCCNC1 [AZD7762] (partner 0.2 µM)
Procedure, shortened: as §1

Row | Cell Line | relative viability (Crizotinib + Navitoclax; first compound 0.01 µM) | relative viability (Crizotinib + Navitoclax; first compound 0.03162 µM) | relative viability (Crizotinib + Navitoclax; first compound 0.1 µM) | relative viability (Crizotinib + Navitoclax; first compound 0.3162 µM) | relative viability (Crizotinib + Navitoclax; first compound 1 µM) | relative viability (Crizotinib + Foretinib; first compound 0.01 µM) | relative viability (Crizotinib + Foretinib; first compound 0.03162 µM) | relative viability (Crizotinib + Foretinib; first compound 0.1 µM) | relative viability (Crizotinib + Foretinib; first compound 0.3162 µM) | relative viability (Crizotinib + Foretinib; first compound 1 µM) | relative viability (Carfilzomib + Luminespib; first compound 0.001 µM) | relative viability (Carfilzomib + Luminespib; first compound 0.003162 µM) | relative viability (Carfilzomib + Luminespib; first compound 0.01 µM) | relative viability (Carfilzomib + Luminespib; first compound 0.03162 µM) | relative viability (Carfilzomib + Luminespib; first compound 0.1 µM) | relative viability (Carfilzomib + AZD7762; first compound 0.001 µM) | relative viability (Carfilzomib + AZD7762; first compound 0.003162 µM) | relative viability (Carfilzomib + AZD7762; first compound 0.01 µM) | relative viability (Carfilzomib + AZD7762; first compound 0.03162 µM) | relative viability (Carfilzomib + AZD7762; first compound 0.1 µM)
1 | NCI-H1437 | 1.05 | 1.07 | 1.14 | 1.02 | 1.13 | 1.14 | 1.22 | 1.25 | 1.27 | 1.32 | 1.08 | 1.24 | 1.11 | 0.94 | 0.249 | 1.07 | 1.13 | 1.13 | 1.14 | 0.478
2 | LK-2 | 0.826 | 0.938 | 0.674 | 0.967 | 0.905 | 1.19 | 1.42 | 1.2 |  | 1.27 | 0.221 | 0.203 | 0.175 | 0.17 | 0.168 | 0.369 | 0.519 | 0.399 | 0.0916 | 0.0762
3 | H3255 | 0.53 | 0.499 | 0.521 | 0.484 | 0.487 | 0.849 | 0.866 | 1.11 | 0.581 | 0.877 | 0.847 | 0.904 | 0.797 | 0.656 | 0.143 | 0.849 | 0.982 | 1.13 | 0.795 | 0.237
4 | NCI-H1355 | 0.901 | 1.02 | 0.929 | 0.923 | 0.931 | 0.935 | 0.81 | 0.922 | 0.916 | 0.959 | 0.723 | 0.791 | 0.731 | 0.606 | 0.238 | 0.8 | 0.886 | 0.91 | 0.512 | 0.207
5 | NCI-H838 | 1.14 | 1.14 | 1.16 | 1.19 | 1.13 | 0.961 | 1.04 | 1.01 | 0.994 | 1.02 | 0.27 | 0.255 | 0.301 | 0.19 | 0.13 | 0.945 | 0.989 | 0.954 | 0.962 | 0.621
6 | BEN | 0.0724 | 0.0669 | 0.0752 | 0.0683 | 0.0583 | 0.866 | 0.732 | 0.644 | 0.332 | 0.633 | 0.287 | 0.528 | 0.258 | 0.248 | 0.175 | 0.717 | 0.619 | 0.657 | 0.59 | 0.409
7 | NCI-H1651 | 0.98 | 1.12 | 0.997 | 1.15 | 1.28 | 0.615 | 0.725 | 0.843 | 0.864 | 0.902 | 0.766 | 0.913 | 0.916 | 0.2 | 0.12 | 0.372 | 0.471 | 0.457 | 0.208 | 0.0827
8 | NCI-H2087 | 0.828 | 0.996 | 1.09 | 0.888 | 1.19 | 1.12 | 1.12 | 1.03 |  | 1.24 | 0.212 | 0.146 | 0.215 | 0.0619 | 0.0448 | 1.21 | 1.31 | 0.946 | 0.515 | 0.0622
9 | NCI-H460 |  | 1.03 | 1.1 | 1.2 | 1.13 | 0.801 | 1.05 | 0.996 | 1.02 | 1.07 | 0.0383 | 0.0252 | 0.0369 | 0.0311 | 0.0158 | 0.655 | 0.567 | 0.687 | 0.732 | 0.0739
10 | NCI-H1993 | 0.769 | 0.897 | 0.669 | 0.831 | 0.805 | 0.848 | 0.9 | 0.741 | 0.827 | 0.82 | 0.9 | 0.932 | 0.983 | 0.71 | 0.462 | 0.625 | 0.841 | 0.69 | 0.589 | 0.503
11 | NCI-H23 | 0.85 | 0.738 | 0.688 |  | 0.816 | 0.998 | 0.905 | 1.01 |  | 0.936 | 0.211 | 0.201 | 0.201 | 0.188 | 0.184 | 0.232 | 0.267 | 0.196 | 0.112 | 0.122
12 | LCLC-97TM1 | 0.318 | 0.39 | 0.341 | 0.317 | 0.404 | 0.83 |  |  | 0.959 | 0.801 | 0.743 | 0.858 | 0.753 | 0.27 | 0.14 | 0.219 | 0.246 | 0.252 | 0.158 | 0.0638
13 | NCI-H1915 | 0.694 | 0.782 | 0.818 |  | 0.801 | 1 | 1.1 | 1.07 |  | 1.08 | 0.698 | 0.781 | 0.766 | 0.375 | 0.0837 | 0.61 | 0.711 | 0.57 | 0.414 | 0.125
14 | LOU-NH91 | 0.68 | 0.708 | 0.701 | 0.647 | 0.727 | 0.917 | 0.949 | 0.995 | 0.921 | 0.98 | 0.344 | 0.475 | 0.344 | 0.287 | 0.289 | 0.741 | 0.778 | 0.679 | 0.309 | 0.329
15 | EKVX | 0.879 | 1 | 0.95 | 0.871 | 0.961 | 0.772 | 0.752 | 0.717 | 0.444 | 0.991 | 0.887 | 0.907 | 0.886 | 0.788 | 0.39 | 0.318 | 0.782 | 0.756 |  | 0.761
16 | LXF-289 | 0.856 | 0.931 |  | 0.879 | 0.939 | 0.864 | 1 | 1.01 | 0.914 | 0.954 | 0.654 | 0.761 | 0.552 | 0.515 | 0.0761 | 1.06 | 1.14 | 1.14 | 0.119 | 0.114
17 | HCC-827 | 0.954 |  | 0.987 | 1.01 | 0.953 | 0.959 | 0.967 | 0.937 | 0.971 | 1.05 | 0.344 | 0.635 | 0.625 | 0.721 | 0.281 | 0.194 | 0.202 | 0.207 | 0.201 | 0.17
18 | NCI-H3122 | 0.99 | 0.993 | 1.04 | 1.02 |  | 0.94 | 0.925 | 0.978 | 0.873 | 0.924 | 0.064 | 0.0963 | 0.106 | 0.107 | 0.106 | 0.948 | 1.05 | 1 | 0.895 | 0.588
19 | NCI-H2126 | 0.834 | 0.826 | 0.842 | 0.759 | 0.832 | 1.03 | 1.18 | 1.12 | 1.1 | 1.18 | 0.875 | 0.999 | 0.938 | 0.744 | 0.465 | 0.875 | 1 | 1.01 | 1.01 | 0.697
20 | HARA | 1.13 | 1.08 | 1.13 | 1.13 | 1.1 | 0.924 | 0.705 | 0.858 |  | 0.877 | 0.871 | 0.576 | 0.615 | 0.051 | 0.0562 | 0.454 | 0.232 | 0.398 | 0.18 | 0.146
21 | LC-2-ad | 0.412 | 0.432 | 0.44 |  | 0.442 | 0.839 | 0.994 |  | 0.884 | 0.877 | 0.974 | 1.19 | 1.12 | 0.593 | 0.265 | 0.798 | 0.913 | 0.856 | 0.794 | 0.608
22 | EMC-BAC-2 | 1.13 | 1.19 | 1.13 | 1.12 | 1.15 | 0.984 | 0.952 | 1.02 | 1.04 | 1.07 | 1.13 | 1.24 | 1.26 | 1.16 | 0.225 | 1.13 | 1.22 | 1.22 | 1.06 | 0.716
23 | NCI-H596 | 0.845 |  |  | 1 | 0.964 | 0.854 | 0.898 | 0.85 | 1.11 | 0.835 | 1.16 | 1.05 | 1.14 | 0.354 | 0.195 | 1.05 | 1.22 | 1.09 | 0.66 | 0.211
24 | NCI-H2347 | 0.682 | 0.734 | 0.849 | 0.799 | 0.852 | 0.689 | 0.918 | 1.03 | 0.656 | 1.06 | 0.509 |  | 0.266 | 0.346 | 0.201 | 0.696 | 0.814 | 0.642 | 0.229 | 0.289
25 | NCI-H322M | 1.07 | 1.12 | 1.19 | 1.13 | 1.3 | 0.852 | 1.04 | 0.947 | 1.09 | 0.889 | 0.719 | 0.951 | 0.849 | 0.713 | 0.291 | 0.677 | 0.527 | 0.682 | 0.59 | 0.464
26 | NCI-H2085 | 1.02 | 1.09 | 1.03 | 1.07 | 1.2 | 0.822 | 0.809 | 0.906 |  | 0.987 | 0.505 | 0.472 | 0.359 | 0.205 | 0.189 | 0.726 | 0.942 | 0.988 | 0.321 | 0.293
27 | LU99A | 0.801 | 0.743 | 0.826 | 0.721 | 0.786 | 0.74 | 0.781 | 0.812 | 0.788 | 0.766 | 0.252 | 0.221 | 0.284 | 0.218 | 0.191 | 0.346 | 0.368 | 0.33 | 0.26 | 0.187
28 | NCI-H1395 | 1.12 | 0.956 | 1.09 | 1.21 |  | 0.827 | 0.937 |  | 0.941 | 0.959 | 0.594 | 0.783 | 0.66 | 0.561 | 0.309 |  | 0.451 | 0.399 | 0.346 | 0.327
